In patent publication US8198273B2, “Compounds and methods for kinase modulation, and indications therefor” (Plexxikon Inc., priority 2009, dated 2012):

Tested on: SW620 colon adenocarcinoma cells (wild-type B-RAF)
Experiment: SW620 cell growth inhibition (ATPlite)
Type: cell-based
Conditions: Homo sapiens, SW-620, 72 h; SW620, 3 days incubation
Outline: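 ATPlite luminescence, taken as a cell-number measure, gave IC50 values after a 3-day 37° C, 5% CO2 incubation. Compounds were tested as 8-point threefold titrations, highest final concentration 10 μM, added to cells seeded the day before.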

IC50: > 10 µM
SMILES: CCCS(=O)(=O)Nc1ccc(F)c(C(=O)c2c[nH]c3ncc(-c4ccc(N(C)C)nc4)cc23)c1F [P-2229, Propane-1-sulfonic acid {3-[5-(6-dimethylamino-pyridin-3-yl)-1H-pyrrolo[2,3-b]pyridine-3-carbonyl]-2,4-difluoro-phenyl}-amide]
